Laboratory results: patent US5889147A (University of Utah Research Foundation, priority 1997, dated 1999)
Entries after “also recorded” stand apart in the source; their conditions may differ. Positions of bridges follow the written chain, without caps; N, C: chain ends. Non-standard residues stand in square brackets, D forms with d. Residues, ends and D or L forms follow the SMILES beside them. Trp(6-Br) = N[C@@H](Cc1c[nH]c2cc(Br)ccc12)C(=O)O; Hyp = O=C(O)[C@@H]1C[C@@H](O)CN1

Columns and labels:
mice [1] = details: mouse, in vivo
serotonin 5HT3 receptor = target: T1, serotonin 5HT3 receptor (Homo sapiens, UniProt P46098)
T1 sequence (P46098 24-478): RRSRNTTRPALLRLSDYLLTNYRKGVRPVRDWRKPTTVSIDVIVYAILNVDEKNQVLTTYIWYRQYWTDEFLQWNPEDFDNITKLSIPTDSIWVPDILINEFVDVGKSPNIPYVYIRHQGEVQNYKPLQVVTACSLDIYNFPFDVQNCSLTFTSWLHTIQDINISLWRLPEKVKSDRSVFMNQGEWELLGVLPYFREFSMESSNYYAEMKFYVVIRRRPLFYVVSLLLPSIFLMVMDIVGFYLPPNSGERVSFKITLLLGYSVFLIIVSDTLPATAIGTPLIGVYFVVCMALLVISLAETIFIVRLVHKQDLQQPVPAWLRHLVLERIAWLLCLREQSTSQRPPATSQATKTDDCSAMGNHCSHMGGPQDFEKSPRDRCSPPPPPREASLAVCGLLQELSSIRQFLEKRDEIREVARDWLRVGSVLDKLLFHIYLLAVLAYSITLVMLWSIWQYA

CF No. 1 mice = details: mouse, in vivo, sc
[2] = tested on: Frings audiogenic seizure susceptible mice; details: mouse, in vivo
mice [3] = details: mouse

NCC(=O)N[C@H]1CSSC[C@@H](C(N)=O)NC(=O)[C@H](Cc2c[nH]c3cc(Br)ccc23)NC(=O)[C@@H]2CCCN2C(=O)[C@H](CCC(=O)O)NC(=O)[C@@H](Cc2c[nH]c3ccccc23)NC(=O)[C@@H]2C[C@@H](O)CN2C1=O [bromocontryphan, GCX1 X2 EPX5 C--NH2, X1 is Hyp, X2 is D-Trp and X5 is 6-bromo-L-Trp] (H-GC[Hyp][dW]EP[Trp(6-Br)]C-NH2; disulfide 2-8)
biological activity in mammalian systems, compared with contryphan R and des[Gly1]contryphan R (mice [1]): very similar to the spectrum of activity previously observed for both contryphan R and des[Gly^1 ]contryphan R

Gly-Cys-Thr-Arg-Thr-Cys-Gly-Gly-Xaa1 -Lys-Cys-Thr-Gly-Thr-Cys-Thr-Cys-Thr-Asn-Ser-Ser-Lys-Cys-Gly-Cys-Arg-Tyr-Asn-Val-His-Pro-Ser-Gly-Xaa2 -Gly-Cys-Gly-Cys-Ala-Cys-Ser, where Xaa1 is Hyp and Xaa2 is 6-bromo-L-tryptophan [sigma conotoxin]
receptor targeted (serotonin 5HT3 receptor): targets the serotonin 5HT3 receptor

Xaa1 -Ala-Thr-Ile-Asp-Xaa2 -Cys-Xaa2-Xaa2 -Thr-Cys-Asn-Val-Thr-Phe-Lys-Thr-Cys-Cys-Gly-Xaa3-Xaa3-Gly-Asp-Trp-Gln-Cys-Val-Xaa2-Ala-Cys-Pro-Val-OH, where Xaa3 =hydroxyproline, Xaa2 =Gla and Xaa1 =bromotryptophan [Bromosleeper Peptide]
anticonvulsant activity (CF No. 1 mice): found to have anticonvulsant activity | anticonvulsant activity [2]: seen to have activity in this model | in vivo effect in very young (<2 weeks old) and older (>3 weeks old) mice (mice [3]): induced sleep in mice of both age groups | Observed Effects in Mice: lethargic/drowsy after (onset time) (mice [3]; in vivo): ≈ 15 min; also recorded: ≈ 19 min; also recorded: ≈ 11 min | dependence of potency on the age of the mice (mice [3]; in vivo): more potent in 9-day-old mice than in the older mice
